PMC12459020, “Chemical Probes that Target a Dissociative LuxR-Type Quorum Sensing Receptor in Gram-Negative Bacteria” (ACS Chemical Biology, 2025)
Entries after “also recorded” stand apart in the source; their conditions may differ. Like-named read-outs stand apart in the source and are kept apart here.

Tests used:
[1] = biological target: T1, EsaR (Pantoea stewartii subsp. stewartii, UniProt P54293); assay: cell-based; conditions: for activation at 100 µM / inhibition at 100 µM: 3.5 h; for activation at 100 µM: read-out: EsaR-repressed (pesaR) [%] agonism; for inhibition at 100 µM: read-out: EsaR-repressed (pesaR) antagonism
T1 construct: expressed in transfected cells; host or cells: E. coli JLD271 (K12 ΔsdiA), arabinose-induced pJN105-esaR
T1 sequence (P54293 whole entry): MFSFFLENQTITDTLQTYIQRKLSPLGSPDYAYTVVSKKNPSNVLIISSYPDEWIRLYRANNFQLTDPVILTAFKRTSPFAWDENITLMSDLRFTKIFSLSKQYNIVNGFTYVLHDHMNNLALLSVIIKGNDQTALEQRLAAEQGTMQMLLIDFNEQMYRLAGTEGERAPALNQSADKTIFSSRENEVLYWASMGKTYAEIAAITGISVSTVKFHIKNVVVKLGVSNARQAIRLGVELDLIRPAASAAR
Source text: (§1) EsaR transcriptional activation and repression were examined using E. coli and P. stewartii reporters (strains and plasmids listed in Table S1; see Methods section for assay details). […] We constructed reporters in E. coli based on previously reported EsaR reporters (Table S1). Each strain contained an EsaR expression plasmid (pJN105-esaR) and a reporter plasmid with either an EsaR-activated promoter (pesaS) or an EsaR-repressed promoter (pesaR) upstream of luxABCDE or GFP.
(§2) Gibson assembly was used to create all constructs. Plasmid pJN105-esaR was created by amplifying esaR from pAC-esaR and inserting it into pJN105. pesaSlux was created by inserting pesaS, amplified from pPesaR-AC:gfp, into the pCS-pesaRlux backbone. The pesaR promoter was amplified from pCS-pesaRlux and inserted into the pPesaR-AC:gfp backbone to create pesaR:GFP. P. stewartii reporter strains were created by transforming pesaR:GFP or pPesaR-AC:gfp into ESN51 by conjugation using E. coli S17 λpir as the donor strain. See SI for details of E. coli ExpR2 reporter construction.
(§3) Overnight cultures were diluted 1:10 in LB medium with appropriate antibiotics and grown at 37 °C (200 rpm) to an OD600 of 0.22–0.27 before induction with 4 mg mL^–1 arabinose. OD600 was measured by placing 200 μL of culture into a 96-well plate and reading optical density using the BioTek Synergy 2 plate reader. Assays were performed in technical triplicate in clear-bottom, white and clear-bottom, black 96-well microtiter plates (Corning Costar 3903 and 3904) for luminescence and fluorescence reporters, respectively. Compounds were dissolved in DMSO, and 2 μL of this stock, or DMSO as a negative control, was added to each well prior to adding 198 μL of induced culture. Plates were incubated at 37 °C (200 rpm) for 3.5 h. Each well was mixed by pipetting before reading OD600 and either luminescence or fluorescence. Single-point screens were performed with one or two biological replicates, and all dose–response curves were performed in biological triplicate. EC50 values were calculated based on a nonlinear regression of log(concentration) vs response (three parameters) using GraphPad Prism 9 software.

[2] = biological target: T1, EsaR; assay: cell-based; conditions: for activation at 100 µM / inhibition at 100 µM: 3.5 h; for activation at 100 µM: read-out: EsaR-activated (pesaS) [%] agonism; for inhibition at 100 µM: read-out: EsaR-activated (pesaS) antagonism; for EsaR agonism, in words / EsaR antagonism, in words: E. coli EsaR reporters; for EsaR agonism, in words: primary screen at 100 μM; for EsaR antagonism, in words: competed against OHHL at approx. EC50; for EsaR agonism at 100 μM (bound stated in text): E. coli EsaR reporter
Source text: as §1, §2, §3

[3] = system: LuxR; conditions: cited from earlier work; for LuxR [%] (agonism, activation): compounds at 200 μM, luminescence in V. fischeri ES114 (ΔluxI), ref Palmer et al., 2011 (main ref 44, SI ref 6); for LuxR antagonism: 5 µM compound against 5 µM OHHL, negative values indicate potential activators, ref 6 (SI; Palmer et al., 2011)
[4] = system: ExpR1; conditions: cited from earlier work; for ExpR1 [%] (agonism, activation): compounds at 200 μM, cellulase activity in P. versatile AC5117, ref Palmer et al., 2011 (main ref 44, SI ref 6); for ExpR1 antagonism: 5 µM compound against 5 µM OHHL, negative values indicate potential activators, ref 6 (SI; Palmer et al., 2011)
[5] = system: ExpR2; conditions: cited from earlier work; for ExpR2 [%] (agonism, percent activation): compounds at 200 μM, cellulase activity in P. versatile AC5099, ref Palmer et al., 2011 (main ref 44, SI ref 6); for ExpR2 antagonism (percent inhibition): 5 µM compound against 5 µM OHHL, negative values indicate potential activators
[6] = ref 6 (SI; Palmer et al., 2011)

Compound	activation at 100 µM [1] [%]	activation at 100 µM [2] [%]	LuxR [%] (agonism, activation) [3]	ExpR1 [%] (agonism, activation) [4]	ExpR2 [%] (agonism, percent activation) [5]	inhibition at 100 µM [1] [%]	inhibition at 100 µM [2] [%]	LuxR antagonism [3] [%]	ExpR1 antagonism [4] [%]	ExpR2 antagonism (percent inhibition) [5, 6] [%]	other results
CCCS(=O)(=O)N[C@H]1CCOC1=O [A8]											EC50 [1]: ≥ 71 µM; EC50 [2]: ≥ 66 µM
CCCCCS(=O)(=O)N[C@H]1CCOC1=O [A10]											EC50 [1]: 17 µM; EC50 [2]: 17 µM; fold less potent than hexanoyl HL in EsaR ([2]; E. coli EsaR reporter EC50 values): about 3 fold
O=C(N[C@H]1CCOC1=O)c1ccc(Br)cc1 [B6]	11	-4	2	2	7						
O=C(N[C@H]1CCOC1=O)c1ccccc1 [B8]	6	2	2	0	6	-4	-4	34	37	23	
O=C(CCc1ccccc1)N[C@H]1CCOC1=O [B9]	6	23	3	4	12	-10	-24	44	48	37	
O=C(/C=C/c1ccccc1)N[C@H]1CCOC1=O [B10]	-2	12	3	4	18	17	-6	48	57	49	
CCCC(=O)N[C@H]1CCOC1=O [BHL, reference compound]	6	26	0	0	17	-46	-22	43	48	19	
O=C(Cc1ccccc1)N[C@H]1CCOC1=O [C1]	7	17	3	6	21	-61	-13	14	4	11	
O=C(Cc1ccc(F)cc1)N[C@H]1CCOC1=O [C2]	-2	4	2	4	14	-50	-14	59	64	23	
O=C(Cc1ccccc1F)N[C@H]1CCOC1=O [C4]	-3	-1	2	8	24	15	-9	49	44	27	
O=C(Cc1ccc(Cl)cc1)N[C@H]1CCOC1=O [C5, 4-Cl PHL]	3	-1	3	5	29	2	-3	75	78	48	EsaR agonism, in words [2]: nearly inactive
O=C(Cc1cccc(Cl)c1)N[C@H]1CCOC1=O [C6]	29	49	61	49	81	-58	-40	65	63	54	EC50 [1]: ≥ 216 µM; EC50 [2]: ≥ 125 µM
O=C(Cc1ccccc1Cl)N[C@H]1CCOC1=O [C7]	5	10	6	9	28	-26	1	53	57	41	
O=C(Cc1cccc(Br)c1)N[C@H]1CCOC1=O [C8]	30	55	70	63	97	-65	-43	68	73	59	
O=C(Cc1ccccc1Br)N[C@H]1CCOC1=O [C9]	0.4	-2	12	9	32	-14	-8	47	49	32	
CCCCCCCCCC(=O)NC1CCCC1 [C10-CPA, reference compound]											EsaR antagonism, in words [2]: did not show antagonism; also recorded: None of these compounds antagonized EsaR
O=C(Cc1ccc(I)cc1)N[C@H]1CCOC1=O [C10]	0.4	7		6	19	25	-5		73	68	IC50 ([5]; previously reported phenotypic reporter data, ref 6 (SI; Palmer et al., 2011)): 0.9 µM
O=C(CCc1cccc([N+](=O)[O-])c1)N[C@H]1CCOC1=O [E38]											EC50 [2]: ≥ 64 µM
O=C(Cc1cccc([N+](=O)[O-])c1)NC1CCCC1 [F18]											EsaR antagonism, in words [2]: None of these compounds antagonized EsaR
Cc1ccc(CS(=O)(=O)N[C@H]2CCOC2=O)cc1 [GAF 13]											EsaR agonism at 100 μM (bound stated in text) [2]: ≤ 50%
O=C1OCC[C@@H]1NS(=O)(=O)Cc1cccc(Cl)c1 [GAF 33]											EsaR agonism at 100 μM (bound stated in text) [2]: ≤ 50%
O=C1OCC[C@@H]1NS(=O)(=O)Cc1cccc(Br)c1 [GAF 41]											EsaR agonism at 100 μM (bound stated in text) [2]: ≤ 50%
O=C1OCC[C@@H]1NS(=O)(=O)c1ccc(Cl)c(Cl)c1Cl [GAF 45]											EC50 [1]: 4.9 µM; EC50 [2]: 4.7 µM
O=C1OCC[C@@H]1NS(=O)(=O)c1cc(Cl)cc(Cl)c1 [GAF 50]											EC50 [1]: 24 µM; EC50 [2]: 24 µM
CC(=O)CC(=O)N[C@H]1CCOC1=O [OBHL, reference compound]											EC50 [1]: 97 µM
CCCC(=O)NC1CCCC1 [RN4]											EsaR antagonism, in words [2]: None of these compounds antagonized EsaR
O=C(NC1CCCC1)C1CCC1 [RN13]											EsaR antagonism, in words [2]: None of these compounds antagonized EsaR; EsaR agonism, in words [2]: moderate agonist
O=C(COc1ccc(I)cc1)NC1CCCC1 [RN17]											EsaR antagonism, in words [2]: None of these compounds antagonized EsaR
CC(C)CC(=O)NC1CCCC1 [RN20]											EsaR antagonism, in words [2]: None of these compounds antagonized EsaR
CCCCCCCCCC(=O)CC(=O)Nc1ccccc1 [V-06–018, reference compound]											EsaR antagonism, in words, EsaR-repressed promoter ([1]; E. coli reporter, competed against OHHL at approx. EC50): inactive as EsaR antagonists; EsaR antagonism, in words [2]: inactive as EsaR antagonists
